The target in the first assay is human kinase Mps-1 (Homo sapiens (Human), UniProt P33981). Description: Mps-1 kinase assay (TR-FRET). It counts as biochemical.
Sequence of human kinase Mps-1 (P33981 whole entry): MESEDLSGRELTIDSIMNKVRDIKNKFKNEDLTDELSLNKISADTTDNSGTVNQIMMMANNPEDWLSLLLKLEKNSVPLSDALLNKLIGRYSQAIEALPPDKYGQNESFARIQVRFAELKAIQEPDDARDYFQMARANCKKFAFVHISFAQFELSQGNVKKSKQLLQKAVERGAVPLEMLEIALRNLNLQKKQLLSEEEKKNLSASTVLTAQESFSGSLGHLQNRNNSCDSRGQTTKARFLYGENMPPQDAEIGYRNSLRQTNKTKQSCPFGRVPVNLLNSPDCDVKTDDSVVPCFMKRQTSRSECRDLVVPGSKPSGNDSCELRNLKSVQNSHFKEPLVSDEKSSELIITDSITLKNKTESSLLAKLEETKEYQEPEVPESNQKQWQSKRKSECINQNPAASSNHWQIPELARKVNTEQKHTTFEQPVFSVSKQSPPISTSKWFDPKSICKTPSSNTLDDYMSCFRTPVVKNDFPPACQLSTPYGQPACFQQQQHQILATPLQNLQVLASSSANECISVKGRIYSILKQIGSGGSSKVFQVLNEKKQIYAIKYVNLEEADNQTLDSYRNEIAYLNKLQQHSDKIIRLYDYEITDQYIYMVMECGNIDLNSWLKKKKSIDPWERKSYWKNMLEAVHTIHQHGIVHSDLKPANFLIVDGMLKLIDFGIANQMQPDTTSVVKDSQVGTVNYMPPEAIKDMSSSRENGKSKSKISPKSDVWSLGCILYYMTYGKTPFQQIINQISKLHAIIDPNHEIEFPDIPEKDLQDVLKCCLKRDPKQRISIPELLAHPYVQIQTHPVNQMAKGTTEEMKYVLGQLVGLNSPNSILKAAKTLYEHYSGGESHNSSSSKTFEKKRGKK
Conditions: not given
As to the method:
The human kinase Mps-1 phosphorylates a biotinylated substrate peptide. Detection of the phosphorylated product is achieved by time-resolved fluorescence resonance energy transfer (TR-FRET) from Europium-labelled anti-phospho-Serine/Threonine antibody as donor to streptavidin labelled with cross-linked allophycocyanin (SA-XLent) as acceptor. Compounds are tested for their inhibition of the kinase activity.
N-terminally GST-tagged human full length recombinant Mps-1 kinase (purchased from Invitrogen, Karslruhe, Germany, cat. no PV4071) was used. As substrate for the kinase reaction a biotinylated peptide of the amino-acid sequence […] (C-terminus in amide form, purchased from Biosynthan GmbH, Berlin) was used.
The concentration of Mps-1 in the assay was adjusted to the activity of the enzyme lot and was chosen appropriate to have the assay in the linear range, typical enzyme concentrations were in the range of about 1 nM (final conc. in the 5 μl assay volume).
The resulting mixture was incubated 1 h at 22° C. to allow the binding of the phosphorylated peptide to the anti-phospho(Ser/Thr)-Europium-antibody. Subsequently the amount of phosphorylated substrate was evaluated by measurement of the resonance energy transfer from the Europium-labelled anti-phospho(Ser/Thr) antibody to the Streptavidin-XLent.
In turn, `O=C(NC1CC1)c1ccc(-n2cnc3c(NCCC(F)(F)F)cc(Oc4cccc(F)c4F)cc32)cc1` [Example 36, N-cyclopropyl-4-{6-(2,3-difluorophenoxy)-4-[(3,3,3-trifluoropropyl)amino]-1H-benzimidazol-1-yl}benzamide] displayed an IC50 of 0.4 nM.
`O=C(NC1CC1)c1ccc(-n2cnc3c(NCCC(F)(F)F)cc(Oc4ccccc4)cc32)cc1` [Example 37, N-cyclopropyl-4-{6-phenoxy-4-[(3,3,3-trifluoropropyl)amino]-1H-benzimidazol-1-yl}benzamide] returned an IC50 of 0.5 nM.

The same assay, now with this note: N-terminally GST-tagged human full length recombinant Mps-1; 10 μM ATP; 1 μM biotinylated peptide substrate; read-out: Mps1 IC50.
As for `Cc1cc(-n2cnc3c(NCCC(F)(F)F)cc(-c4ccnn4C)cc32)ccc1C(=O)NC1CC1` [Example 30, N-cyclopropyl-2-methyl-4-{6-(1-methyl-1H-pyrazol-5-yl)-4-[(3,3,3-trifluoropropyl)amino]-1H-benzimidazol-1-yl}benzamide], the IC50 was found to be 4.8 nM.
Same read-out and setting: in the case of `CCNC(=O)c1ccc(-n2cnc3c(NCCC(F)(F)F)cc(-c4ccnn4C)cc32)cc1C` [Example 31, N-ethyl-2-methyl-4-{6-(1-methyl-1H-pyrazol-5-yl)-4-[(3,3,3-trifluoropropyl)amino]-1H-benzimidazol-1-yl}benzamide] it was 33 nM.
Same read-out and setting: with `CNC(=O)c1ccc(-n2cnc3c(NCCC(F)(F)F)cc(-c4ccnn4C)cc32)cc1C` [Example 32, N, 2-dimethyl-4-{6-(1-methyl-1H-pyrazol-5-yl)-4-[(3,3,3-trifluoropropyl)amino]-1H-benzimidazol-1-yl}benzamide] the figure was 20.2 nM; with `COc1ccc(Oc2cc(NCCC(F)(F)F)c3ncn(-c4ccc(C(=O)NC5CC5)c(C)c4)c3c2)cc1F` [Example 33, N-cyclopropyl-4-{6-(3-fluoro-4-methoxyphenoxy)-4-[(3,3,3-trifluoropropyl)amino]-1H-benzimidazol-1-yl}-2-methylbenzamide], 0.7 nM; with `CCNC(=O)c1ccc(-n2cnc3c(NCCC(F)(F)F)cc(Oc4ccc(OC)c(F)c4)cc32)cc1C` [Example 34, N-ethyl-4-{6-(3-fluoro-4-methoxyphenoxy)-4-[(3,3,3-trifluoropropyl)amino]-1H-benzimidazol-1-yl}-2-methylbenzamide], 5.8 nM.
On the same count and under the same terms, in the case of `CNC(=O)c1ccc(-n2cnc3c(NCCC(F)(F)F)cc(Oc4ccc(OC)c(F)c4)cc32)cc1C` [Example 35, 4-{6-(3-Fluoro-4-methoxyphenoxy)-4-[(3,3,3-trifluoropropyl)amino]-1H-benzimidazol-1-yl}-N,2-dimethylbenzamide] it was 3.9 nM; in that of `COc1ccc(Oc2cc(NCCC(F)(F)F)c3ncn(-c4ccc(C(=O)NC5CC5)cc4)c3c2)cc1F` [Example 38, N-cyclopropyl-4-{6-(3-fluoro-4-methoxyphenoxy)-4-[(3,3,3-trifluoropropyl)amino]-1H-benzimidazol-1-yl}benzamide], 0.4 nM; in that of `CNC(=O)c1ccc(-n2cnc3c(NCCC(F)(F)F)cc(Oc4ccccc4OC)cc32)cc1C` [Example 39, 4-{6-(2-Methoxyphenoxy)-4-[(3,3,3-trifluoropropyl)amino]-1H-benzimidazol-1-yl}-N, 2-dimethylbenzamide], 43.3 nM.
With `CCNC(=O)c1ccc(-n2cnc3c(NCCC(F)(F)F)cc(Oc4ccccc4OC)cc32)cc1C` [Example 40, N-ethyl-4-{6-(2-methoxyphenoxy)-4-[(3,3,3-trifluoropropyl)amino]-1H-benzimidazol-1-yl}-2-methylbenzamide], the IC50 turned out to be 58.2 nM.
Still for that read-out and setting: with `COc1ccccc1Oc1cc(NCCC(F)(F)F)c2ncn(-c3ccc(C(=O)NC4CC4)c(C)c3)c2c1` [Example 41, N-cyclopropyl-4-{6-(2-methoxyphenoxy)-4-[(3,3,3-trifluoropropyl)amino]-1H-benzimidazol-1-yl}-2-methylbenzamide] the figure was 10.1 nM; with `CNC(=O)c1ccc(-n2cnc3c(NCC4CCOCC4)cc(Oc4ccc(OC)c(F)c4)cc32)cc1C` [Example 42, 4-{6-(3-Fluoro-4-methoxyphenoxy)-4-[(tetrahydro-2H-pyran-4-ylmethyl)amino]-1H-benzimidazol-1-yl}-N,2-dimethylbenzamide], 4.9 nM; with `CCNC(=O)c1ccc(-n2cnc3c(NCC4CCOCC4)cc(Oc4ccc(OC)c(F)c4)cc32)cc1C` [Example 43, N-ethyl-4-{6-(3-fluoro-4-methoxyphenoxy)-4-[(tetrahydro-2H-pyran-4-ylmethyl)amino]-1H-benzimidazol-1-yl}-2-methylbenzamide], 4 nM.
On the same count and under the same terms, with `COc1ccc(Oc2cc(NCC3CCOCC3)c3ncn(-c4ccc(C(=O)NC5CC5)c(C)c4)c3c2)cc1F` [Example 44, N-cyclopropyl-4-{6-(3-fluoro-4-methoxyphenoxy)-4-[(tetrahydro-2H-pyran-4-ylmethyl)amino]-1H-benzimidazol-1-yl}-2-methylbenzamide] the figure was 0.7 nM; with `Cc1cc(-n2cnc3c(NCCC(F)(F)F)cc(Oc4ccc(OCc5ccccc5)cc4)cc32)ccc1C(=O)NC1CC1` [Example 45, 4-{6-[4-(Benzyloxy)phenoxy]-4-[(3,3,3-trifluoropropyl)amino]-1H-benzimidazol-1-yl}-N-cyclopropyl-2-methylbenzamide], 6.7 nM.
On the same count and under the same terms, with `CCNC(=O)c1ccc(-n2cnc3c(NCCC(F)(F)F)cc(Oc4ccc(OCc5ccccc5)cc4)cc32)cc1C` [Example 46, 4-{6-[4-(Benzyloxy)phenoxy]-4-[(3,3,3-trifluoropropyl)amino]-1H-benzimidazol-1-yl}-N-ethyl-2-methylbenzamide] the figure was 100 nM.
For the molecule `CNC(=O)c1ccc(-n2cnc3c(NCCC(F)(F)F)cc(Oc4ccc(OCc5ccccc5)cc4)cc32)cc1C` [Example 47, 4-{6-[4-(Benzyloxy)phenoxy]-4-[(3,3,3-trifluoropropyl)amino]-1H-benzimidazol-1-yl}-N,2-dimethylbenzamide], the IC50 stood at 100 nM.
`CNC(=O)c1ccc(-n2cnc3c(NCCC(F)(F)F)cc(Oc4ccc(O)cc4)cc32)cc1C` [Example 48, 4-{6-(4-Hydroxyphenoxy)-4-[(3,3,3-trifluoropropyl)amino]-1H-benzimidazol-1-yl}-N,2-dimethylbenzamide]: the IC50 amounted to 5.6 nM.
Still for that read-out and setting: in the case of `CCNC(=O)c1ccc(-n2cnc3c(NCCC(F)(F)F)cc(Oc4ccc(O)cc4)cc32)cc1C` [Example 49, N-ethyl-4-{6-(4-hydroxyphenoxy)-4-[(3,3,3-trifluoropropyl)amino]-1H-benzimidazol-1-yl}-2-methylbenzamide] it was 5.5 nM.
The same measure, in the same setting: with `Cc1cc(-n2cnc3c(NCCC(F)(F)F)cc(Oc4ccc(O)cc4)cc32)ccc1C(=O)NC1CC1` [Example 50, N-cyclopropyl-4-{6-(4-hydroxyphenoxy)-4-[(3,3,3-trifluoropropyl)amino]-1H-benzimidazol-1-yl}-2-methylbenzamide] the figure was 1.1 nM; with `Cc1cc(-c2cc(NCCC(F)(F)F)c3ncn(-c4ccc(C(=O)NC5CC5)c(C)c4)c3c2)ccc1C(=O)NC1CC1` [Example 51, 4,4′-{4-[(3,3,3-Trifluoropropyl)amino]-1H-benzimidazole-1,6-diyl}bis(N-cyclopropyl-2-methylbenzamide)], 0.9 nM.
As for `CNC(=O)c1ccc(-c2cc(NCCC(F)(F)F)c3ncn(-c4ccc(C(=O)NC5CC5)c(C)c4)c3c2)cc1C` [Example 52, 4-{1-[4-(Cyclopropylcarbamoyl)-3-methylphenyl]-4-[(3,3,3-trifluoropropyl)amino]-1H-benzimidazol-6-yl}-N,2-dimethylbenzamide], the IC50 was 0.9 nM.

The values above are taken from patent US9388140B2, “Substituted benzimidazoles” (priority 2011, dated 2016).
